Entries after “also recorded” stand apart in the source; their conditions may differ.
System: submissive rats
Assay: Dominant-Submissive Relations (DSR) assay: Reduction of Submissive Behavior Model (RSBM) of depression
Format: in vivo, rat
Protocol: The DSR assay is divided into two models: Reduction of Dominant Behavior Model (RDBM) of mania and Reduction of Submissive Behavior Model (RSBM) of depression. The RDBM, wherein the dominant animals are treated with test compound, is predictive of the ability of the test compound to treat mania. The RSBM, wherein the submissive animals are treated with test compound, is predictive of the ability of the test compound to treat depression.
Male Sprague Dawley rats (140 to 160 g) from Charles River Laboratories Wilmington, Mass. were used in this assay. Shipments of rats were received at two-week intervals. Each shipment went through five-day quarantine, one-week acclimation period, and one-week selection process, followed by five-weeks of drug or vehicle treatment to those pairs selected.
Rats were housed four per cage. Access to food was restricted to one hour per day after testing on Monday through Thursday. After testing on Friday, rats had free access to food until being fasted again on Sunday. At no time were the rats deprived of water. The food deprivation periods used had little effect on weight gain as the average weight of rats was about 300 g at the end of the study. At the conclusion of experiment rats were sacrificed by decapitation, the trunk blood and brains were collected for in vitro experiments and drug concentration measurements.
The basic testing apparatus consisted of two chambers connected with a tunnel only large enough to allow one rat to pass through at a time. On the floor, at the mid-point of the tunnel was a container of sweetened milk. This basic apparatus was replicated, so that a total of four pairs of rats can be video tracked simultaneously. The camera can distinguish rats marked by different colors. Thus, the rats' heads were colored for the purpose of video tracking, red in one cage and yellow in the other cage. Only one animal at a time can have comfortable access to the feeder, but both animals can drink milk during the five-minute daily session. During the five-minute daily sessions, time spent in the feeder zone by each rat was recorded by the video tracking software and saved into a text file.
The test began with a random assignment of rats into pairs. Each member of a pair was placed in an opposite chamber of the testing apparatus. The time spent in the feeder zone by each animal was recorded. During the first week (five days) of testing the animals habituate to the new environment. Dominance was assigned to the animal with the highest score during the second week of testing if three criteria were achieved. First, there must have been a significant difference (two-tailed t-test, P<0.05) between the average daily drinking scores of both animals. Second, the dominant animal score must have been at least 25% greater than the submissive animal's score. Finally, there must have been no “reversals” during the pair selection week where the putative submissive rat out-scored its dominant partner on isolated occasions. Ideally there were minimal reversals during the acclimation week as well. About twenty-five to thirty-three percent of the initial animal pairs achieved these criteria and only these pairs were continued in the study. […]
Significant differences between time spent on the feeder by dominant and submissive rats were determined by ANOVA using GraphPad Prism software (GraphPad Software, Inc. San Diego, Calif.) followed by a two-tailed t-test (P<0.05). Comparisons were made between treatment groups using normalized dominance level values in paired animals. The dominance level is a value that measures social relation between paired subjects. Dominance level (DL)=FTD−FTS where FTD is the feeder time of dominant rats and FTS is the feeder time of submissive rats. The normalization was conducted according to the formula: Dominance Level(week n in %)=(Dominance Level(week n))/(Dominance Level(week 2) […]

Question: For `NS(=O)(=O)NC[C@H]1COc2cc(Cl)ccc2O1` [Compound #8, (2S)-(−)-N-(6-Chloro-2,3-dihydro-benzo[1,4]dioxin-2-ylmethyl)-sulfamide], which “loss of significance between dominant and submissive rats feeder time” value (2.5 mg/kg and 120.0 mg/kg p.o.) is on record?
Answer: no consistent loss of significance

Question: What about the “Activity Onset Time at the 50% effect (AOT50)” value (2.5 mg/kg p.o.) of the same compound?
Answer: 2.1 days

Question: What about the “Dominance Level (DL) values vs control” value (2.5 mg/kg p.o.) of the same compound?
Answer: did not significantly differ from control

Question: And the “maximum of the effect (non-linear regression), ± SEM” value (2.5 mg/kg p.o.)?
Answer: 52.4±32.7%

Question: What about the “Activity Onset Time at the 50% effect (AOT50)” value (12 mg/kg p.o.) of the same compound?
Answer: 5.3 days

Question: What about the “maximum of the effect (non-linear regression), ± SEM” value (12 mg/kg p.o.) of the same compound?
Answer: 87.9±42.6%

Question: What about the “Dominance Level (DL) values vs control” value (12.0 mg/kg p.o.) of the same compound?
Answer: significantly different from vehicle treated controls after the second, fourth and fifth week of treatment

Question: And the “first day of consistent lack of statistical significance between feeder time of dominant and submissive rats (activity onset time)” value (12.0 mg/kg p.o.)?
Answer: 6 days

Question: And the “Activity Onset Time at the 50% effect (AOT50)” value (60 mg/kg p.o.)?
Answer: 1.6 days

Question: And the “Dominance Level (DL) values vs control” value (60 mg/kg p.o.)?
Answer: significant difference in DL values relative to vehicle starting at the first week and continuing through the treatment duration of 5 weeks

Question: And the “first day of consistent lack of statistical significance between feeder time of dominant and submissive rats (activity onset time)” value (60 mg/kg p.o.)?
Answer: 4 days

Question: And the “maximum of the effect (non-linear regression), ± SEM” value (60 mg/kg p.o.)?
Answer: 116.9±29.5%

Question: What about the “Dominance Level (DL) values vs control” value (120 mg/kg p.o., significance dissipated after the second week) of the same compound?
Answer: significantly different from the control group after first week

Question: And the “submissiveness during first week of treatment” value (fluoxetine 10 mg/kg i.p., Compound #8 treated groups p.o.)?
Answer: did not show this effect

Question: What about the submissive behavior (p.o. once a day for 5 weeks, 2.5-120 mg/kg) of the same compound?
Answer: reduce submissive behavior in a dose-dependent manner; also recorded: reduced submissive behavior

Question: What about the “Emax in the RSBM” value (p.o., calculated) of the same compound?
Answer: 131.4±4.7%

Question: What about the “significant difference between dominant and submissive rats lost” value (submissive rats treated p.o., all doses used (2.5, 12, 60, 120 mg/kg)) of the same compound?
Answer: lost after the first week of treatment
